In PubChem BioAssay (NCI):
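Each compound was tested at five concentrations against cells in 96-well plates for 48 hours. Abbreviation: GI50, concentration required for 50% inhibition of growth. The concentration for full growth arrest is given as TGI.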

What was measured:
Test in all cases: NCI-60 cell line screen, 48 h
786-0 renal = tested on: 786-0 renal
A498 renal = tested on: A498 renal
A549 NSCLC = tested on: A549 NSCLC
ACHN renal = tested on: ACHN renal
BT-549 breast = tested on: BT-549 breast
CAKI-1 renal = tested on: CAKI-1 renal
CCRF-CEM leukemia = tested on: CCRF-CEM leukemia
COLO 205 colon = tested on: COLO 205 colon
DU-145 prostate = tested on: DU-145 prostate
EKVX NSCLC = tested on: EKVX NSCLC
HCC-2998 colon = tested on: HCC-2998 colon
HCT-15 colon = tested on: HCT-15 colon
HL-60(TB) leukemia = tested on: HL-60(TB) leukemia
HOP-62 NSCLC = tested on: HOP-62 NSCLC
HOP-92 NSCLC = tested on: HOP-92 NSCLC
HS 578T breast = tested on: HS 578T breast
HT29 colon = tested on: HT29 colon
IGROV1 ovarian = tested on: IGROV1 ovarian
KM12 colon = tested on: KM12 colon
LOX IMVI melanoma = tested on: LOX IMVI melanoma
MALME-3M melanoma = tested on: MALME-3M melanoma
MCF7 breast = tested on: MCF7 breast
MDA-MB-231 breast = tested on: MDA-MB-231 breast
MDA-MB-435 = tested on: MDA-MB-435
MOLT-4 leukemia = tested on: MOLT-4 leukemia
NCI-H226 lung = tested on: NCI-H226 lung
NCI-H23 lung = tested on: NCI-H23 lung
NCI-H460 lung = tested on: NCI-H460 lung
NCI-H522 lung = tested on: NCI-H522 lung
NCI/ADR-RES ovarian = tested on: NCI/ADR-RES ovarian
OVCAR-3 ovarian = tested on: OVCAR-3 ovarian
OVCAR-4 ovarian = tested on: OVCAR-4 ovarian
OVCAR-5 ovarian = tested on: OVCAR-5 ovarian
OVCAR-8 ovarian = tested on: OVCAR-8 ovarian
PC-3 prostate = tested on: PC-3 prostate
RPMI-8226 leukemia = tested on: RPMI-8226 leukemia
RXF 393 renal = tested on: RXF 393 renal
SF-268 CNS = tested on: SF-268 CNS
SF-295 CNS = tested on: SF-295 CNS
SF-539 CNS = tested on: SF-539 CNS
SK-MEL-2 melanoma = tested on: SK-MEL-2 melanoma
SK-MEL-28 melanoma = tested on: SK-MEL-28 melanoma
SK-MEL-5 melanoma = tested on: SK-MEL-5 melanoma
SK-OV-3 ovarian = tested on: SK-OV-3 ovarian
SN12C renal = tested on: SN12C renal
SNB-19 CNS = tested on: SNB-19 CNS
SNB-75 CNS = tested on: SNB-75 CNS
SW-620 colon = tested on: SW-620 colon
T-47D breast = tested on: T-47D breast
TK-10 renal = tested on: TK-10 renal
U251 CNS = tested on: U251 CNS
UACC-257 melanoma = tested on: UACC-257 melanoma
UACC-62 melanoma = tested on: UACC-62 melanoma
UO-31 renal = tested on: UO-31 renal

CCCN1C/C(=C\c2ccc(O)c(OC)c2)C(=O)/C(=C/c2ccc(O)c(OC)c2)C1 showed a GI50 (786-0 renal) of over 100 µM, a TGI (786-0 renal) of over 100 µM and a GI50 (A498 renal) of over 100 µM. The TGI (A498 renal) was over 100 µM, the GI50 (A549 NSCLC) was over 100 µM and the TGI (A549 NSCLC) was over 100 µM. For the same molecule, the GI50 (ACHN renal) was over 100 µM, the TGI (ACHN renal) was over 100 µM and the GI50 (BT-549 breast) was over 100 µM. The TGI (BT-549 breast) was over 100 µM, the GI50 (CAKI-1 renal) was over 100 µM and the TGI (CAKI-1 renal) was over 100 µM. For the same molecule, the GI50 (CCRF-CEM leukemia) was over 100 µM, the TGI (CCRF-CEM leukemia) was over 100 µM and the GI50 (COLO 205 colon) was over 100 µM. The TGI (COLO 205 colon) was over 100 µM, the GI50 (DU-145 prostate) was over 100 µM and the TGI (DU-145 prostate) was over 100 µM. For the same molecule, the GI50 (EKVX NSCLC) was over 100 µM, the TGI (EKVX NSCLC) was over 100 µM and the GI50 (HCC-2998 colon) was over 100 µM. The TGI (HCC-2998 colon) was over 100 µM, the GI50 (HCT-15 colon) was over 100 µM and the TGI (HCT-15 colon) was over 100 µM. For the same molecule, the GI50 (HL-60(TB) leukemia) was over 100 µM, the TGI (HL-60(TB) leukemia) was over 100 µM and the GI50 (HOP-62 NSCLC) was over 100 µM. The TGI (HOP-62 NSCLC) was over 100 µM, the GI50 (HOP-92 NSCLC) was over 100 µM and the TGI (HOP-92 NSCLC) was over 100 µM. It also gave a GI50 (HS 578T breast) of over 100 µM, a TGI (HS 578T breast) of over 100 µM and a GI50 (HT29 colon) of over 100 µM. For the same molecule, the TGI (HT29 colon) was over 100 µM, the GI50 (IGROV1 ovarian) was over 100 µM and the TGI (IGROV1 ovarian) was over 100 µM. For the same molecule, the GI50 (KM12 colon) was over 100 µM, the TGI (KM12 colon) was over 100 µM and the GI50 (LOX IMVI melanoma) was over 100 µM. For the same molecule, the TGI (LOX IMVI melanoma) was over 100 µM, the GI50 (MALME-3M melanoma) was over 100 µM and the TGI (MALME-3M melanoma) was over 100 µM. It also gave a GI50 (MCF7 breast) of over 100 µM, a TGI (MCF7 breast) of over 100 µM and a GI50 (MDA-MB-231 breast) of over 100 µM. For the same molecule, the TGI (MDA-MB-231 breast) was over 100 µM, the GI50 (MDA-MB-435) was over 100 µM and the TGI (MDA-MB-435) was over 100 µM. It also gave a GI50 (MOLT-4 leukemia) of over 100 µM, a TGI (MOLT-4 leukemia) of over 100 µM and a GI50 (NCI-H226 lung) of over 100 µM. It also gave a TGI (NCI-H226 lung) of over 100 µM, a GI50 (NCI-H23 lung) of over 100 µM and a TGI (NCI-H23 lung) of over 100 µM. For the same molecule, the GI50 (NCI-H460 lung) was over 100 µM, the TGI (NCI-H460 lung) was over 100 µM and the GI50 (NCI-H522 lung) was over 100 µM. The TGI (NCI-H522 lung) was over 100 µM, the GI50 (NCI/ADR-RES ovarian) was over 100 µM and the TGI (NCI/ADR-RES ovarian) was over 100 µM. For the same molecule, the GI50 (OVCAR-3 ovarian) was over 100 µM, the TGI (OVCAR-3 ovarian) was over 100 µM and the GI50 (OVCAR-4 ovarian) was over 100 µM. The TGI (OVCAR-4 ovarian) was over 100 µM, the GI50 (OVCAR-5 ovarian) was over 100 µM and the TGI (OVCAR-5 ovarian) was over 100 µM. The GI50 (OVCAR-8 ovarian) was over 100 µM, the TGI (OVCAR-8 ovarian) was over 100 µM and the GI50 (PC-3 prostate) was over 100 µM. For the same molecule, the TGI (PC-3 prostate) was over 100 µM, the GI50 (RPMI-8226 leukemia) was over 100 µM and the TGI (RPMI-8226 leukemia) was over 100 µM. It also gave a GI50 (RXF 393 renal) of over 100 µM, a TGI (RXF 393 renal) of over 100 µM and a GI50 (SF-268 CNS) of over 100 µM. The TGI (SF-268 CNS) was over 100 µM, the GI50 (SF-295 CNS) was over 100 µM and the TGI (SF-295 CNS) was over 100 µM. The GI50 (SF-539 CNS) was over 100 µM, the TGI (SF-539 CNS) was over 100 µM and the GI50 (SK-MEL-2 melanoma) was over 100 µM. It also gave a TGI (SK-MEL-2 melanoma) of over 100 µM, a GI50 (SK-MEL-28 melanoma) of over 100 µM and a TGI (SK-MEL-28 melanoma) of over 100 µM. For the same molecule, the GI50 (SK-MEL-5 melanoma) was over 100 µM, the TGI (SK-MEL-5 melanoma) was over 100 µM and the GI50 (SK-OV-3 ovarian) was over 100 µM. It also gave a TGI (SK-OV-3 ovarian) of over 100 µM, a GI50 (SN12C renal) of over 100 µM and a TGI (SN12C renal) of over 100 µM. It also gave a GI50 (SNB-19 CNS) of over 100 µM, a TGI (SNB-19 CNS) of over 100 µM and a GI50 (SNB-75 CNS) of over 100 µM. The TGI (SNB-75 CNS) was over 100 µM, the GI50 (SW-620 colon) was over 100 µM and the TGI (SW-620 colon) was over 100 µM. The GI50 (T-47D breast) was over 100 µM, the TGI (T-47D breast) was over 100 µM and the GI50 (TK-10 renal) was over 100 µM. The TGI (TK-10 renal) was over 100 µM, the GI50 (U251 CNS) was over 100 µM and the TGI (U251 CNS) was over 100 µM. It also gave a GI50 (UACC-257 melanoma) of over 100 µM, a TGI (UACC-257 melanoma) of over 100 µM and a GI50 (UACC-62 melanoma) of over 100 µM. For the same molecule, the TGI (UACC-62 melanoma) was over 100 µM, the GI50 (UO-31 renal) was over 100 µM and the TGI (UO-31 renal) was over 100 µM.
